Values quoted from earlier work as cited in patent US20250049738A1, “METHOD OF TREATMENT AND SELECTION OF PATIENTS BENEFITING FROM AGOMELATINE BASED ON EEG MEASUREMENTS” (Alto Neuroscience, Inc., priority 2023, published 2025).

Columns and labels:
[1] = test system: depression; conditions: in vivo; cited from earlier work
[2] = test system: circadian rhythm; conditions: in vivo; cited from earlier work

Structure (SMILES): COc1ccc2[nH]cc(CCNC(C)=O)c2c1 [melatonin]
- antidepressant efficacy [1]: not an effective antidepressant
- effect on circadian rhythm [2]: phase advance circadian rhythm
